In ChEMBL document CHEMBL3991601, “The target landscape of clinical kinase drugs” (Science, 2017):
The source made the active and inactive calls. Unless noted, the calls are words filed in the database; no cut-off is given here.

Tests used:
[1] = molecular target: Putative nucleoside diphosphate kinase (Homo sapiens, UniProt O60361)
Actin-related protein 3 = Actin-related protein 3 (Homo sapiens, UniProt P61158)
[2] = molecular target: 5'-AMP-activated protein kinase subunit gamma-2 (Homo sapiens, UniProt Q9UGJ0)
Sequence of 5'-AMP-activated protein kinase subunit gamma-2 (Q9UGJ0 whole entry): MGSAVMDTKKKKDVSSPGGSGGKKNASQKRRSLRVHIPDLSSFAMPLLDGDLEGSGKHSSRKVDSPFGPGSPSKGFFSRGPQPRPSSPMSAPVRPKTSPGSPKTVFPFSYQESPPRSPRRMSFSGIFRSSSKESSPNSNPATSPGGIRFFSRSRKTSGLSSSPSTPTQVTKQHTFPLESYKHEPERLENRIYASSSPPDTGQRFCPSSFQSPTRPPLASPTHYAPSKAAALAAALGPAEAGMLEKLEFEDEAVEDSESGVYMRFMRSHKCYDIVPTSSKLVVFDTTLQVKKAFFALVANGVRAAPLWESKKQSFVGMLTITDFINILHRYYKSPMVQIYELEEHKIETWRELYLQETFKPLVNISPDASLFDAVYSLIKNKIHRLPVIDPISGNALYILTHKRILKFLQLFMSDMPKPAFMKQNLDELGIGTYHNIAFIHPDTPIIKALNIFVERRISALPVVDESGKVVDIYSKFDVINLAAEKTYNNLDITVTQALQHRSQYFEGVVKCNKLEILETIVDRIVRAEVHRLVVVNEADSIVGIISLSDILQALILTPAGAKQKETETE

[3] = molecular target: T1, General transcription and DNA repair factor IIH helicase subunit XPD (Homo sapiens, UniProt P18074)
T1 sequence (P18074 whole entry): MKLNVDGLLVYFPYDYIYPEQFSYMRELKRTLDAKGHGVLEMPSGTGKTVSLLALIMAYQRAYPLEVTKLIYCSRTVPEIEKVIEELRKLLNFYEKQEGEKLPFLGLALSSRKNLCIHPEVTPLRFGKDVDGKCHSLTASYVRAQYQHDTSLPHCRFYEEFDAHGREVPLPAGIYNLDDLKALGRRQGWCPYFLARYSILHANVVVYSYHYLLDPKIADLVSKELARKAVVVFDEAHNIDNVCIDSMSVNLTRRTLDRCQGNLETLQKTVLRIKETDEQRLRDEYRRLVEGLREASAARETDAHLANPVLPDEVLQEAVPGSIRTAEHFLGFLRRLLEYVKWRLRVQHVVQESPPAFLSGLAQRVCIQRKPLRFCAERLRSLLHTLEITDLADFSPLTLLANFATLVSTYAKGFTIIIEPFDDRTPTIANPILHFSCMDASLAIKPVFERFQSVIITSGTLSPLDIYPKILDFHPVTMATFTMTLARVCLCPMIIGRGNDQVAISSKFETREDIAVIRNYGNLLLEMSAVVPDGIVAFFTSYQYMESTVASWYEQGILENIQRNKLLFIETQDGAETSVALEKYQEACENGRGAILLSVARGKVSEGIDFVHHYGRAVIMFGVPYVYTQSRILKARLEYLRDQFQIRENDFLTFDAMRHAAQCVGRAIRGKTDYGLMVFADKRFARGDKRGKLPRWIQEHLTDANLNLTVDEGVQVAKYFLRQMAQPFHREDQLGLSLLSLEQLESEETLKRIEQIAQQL

[4] = molecular target: T2, Uncharacterized protein FLJ45252 (Homo sapiens, UniProt Q6ZSR9)
T2 sequence (Q6ZSR9 whole entry): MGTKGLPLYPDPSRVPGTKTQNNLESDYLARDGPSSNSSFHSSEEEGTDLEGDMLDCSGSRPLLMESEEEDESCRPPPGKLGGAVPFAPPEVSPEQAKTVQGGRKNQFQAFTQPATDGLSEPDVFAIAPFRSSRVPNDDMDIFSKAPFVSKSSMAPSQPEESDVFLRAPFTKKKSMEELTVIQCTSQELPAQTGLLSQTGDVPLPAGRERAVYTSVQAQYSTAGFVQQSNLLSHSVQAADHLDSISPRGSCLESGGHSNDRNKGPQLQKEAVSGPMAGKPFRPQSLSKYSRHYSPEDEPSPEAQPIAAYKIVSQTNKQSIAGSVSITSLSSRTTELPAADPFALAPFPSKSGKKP

Sequence of Putative nucleoside diphosphate kinase (O60361 whole entry): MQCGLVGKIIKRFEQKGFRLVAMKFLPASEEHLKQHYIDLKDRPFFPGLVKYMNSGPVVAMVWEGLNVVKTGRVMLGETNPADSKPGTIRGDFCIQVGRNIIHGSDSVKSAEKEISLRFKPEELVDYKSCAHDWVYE

Row | Kd [1] | Compound | Kd (Actin-related protein 3) | Kd [2] | Kd [3] | Kd [4]
1 | > 30 µM (inactive) | COc1cc(Nc2ncc3c(n2)-c2ccc(Cl)cc2C(c2c(F)cccc2OC)=NC3)ccc1C(=O)O [ALISERTIB] |  |  |  | 
2 |  | NC(=O)Nc1cc(-c2cccc(F)c2)sc1C(=O)N[C@H]1CCCNC1 [AZD-7762] | > 30 µM (inactive) |  |  | 
3 |  | COc1c(OCCCN2CCOCC2)ccc2c1N=C(NC(=O)c1cnc(N)nc1)N1CCN=C21 [COPANLISIB] |  | > 30 µM (inactive) | > 30 µM (inactive) | > 30 µM (inactive)
4 |  | O=C(Nc1nc2cccc(-c3ccc(CN4CCS(=O)(=O)CC4)cc3)n2n1)C1CC1 [FILGOTINIB] |  | > 30 µM (inactive) | > 30 µM (inactive) | 4.38 µM (active)
5 | > 30 µM (inactive) | COc1ncc(-c2ccc3nccc(-c4ccnnc4)c3c2)cc1NS(=O)(=O)c1ccc(F)cc1F [OMIPALISIB] |  |  |  | 
6 |  | Cc1nc(Nc2n[nH]c3c2CN(C(=O)N[C@H](CN(C)C)c2ccccc2)C3(C)C)c2sccc2n1 [PF-03758309] | > 30 µM (inactive) |  |  | 
